Experimental findings from patent US20220249413A1, “SWELL 1 MODULATORS FOR TREATMENT OF NON-ALCOHOLIC FATTY LIVER DISEASE, IMMUNE DEFICIENCIES, MALE INFERTILITY AND VASCULAR DISEASES” (priority 2019, published 2022) are described below.

The nature of the data set: Tolerability during chronic injection protocols. In kind it is in vivo, mouse. The following applies: daily injections for up to 8 weeks, 5 mg/kg i.p. The text has this:
Patients Human islets and adipocytes were obtained and cultured as described previously (Zhang et al., Nat Cell Biol, 19, 504-517, 2017; Kang et al., Nature Communications, 9, 367, 2018). The Patients involved in the study were anonymous and information such as gender, age, HbA1c, glucose levels and BMI only were available to the research team. The study was approved and carried out as per the guidelines of the University of Iowa Institutional Review Board (IRB). Animals All experimental procedures involving mice were approved by the Institutional Animal Care and Use Committee of the University of Iowa and Washington University at St. Louis. All C57BL/6 mice involved in study were purchased from Charles River Labs. Both KK.Cg-Ay/J (KKA^y) and KK.Cg-Aa/J (KKA^a) mice involved in study were gender and age-matched mice obtained from Jackson Labs (Stock No: 002468) and bred up for experiments. The mice were fed ad libitum with either regular chow (RC) or high-fat diet (Research Diets, Inc., 60 kcal % fat) with free access to water and housed in a light-, temperature- and humidity-controlled room. For high-fat diet (HFD) studies, only male mice were used and were started on HFD regimen at the age of 6-9 weeks. For all experiments involving KKA^y and KKA^a mice, both males and females were used at approximately 50/50 ratio. […] Based on GFP fluorescence, viral transduction efficiency was ˜90%.

With `CCCCC1(C2CCCC2)Cc2cc(OCCCC(=O)O)c(Cl)c(Cl)c2C1=O` (stereo not shown) [Smod1, 4-[(2-Butyl-6,7-dichloro-2-cyclopentyl-2,3-dihydro-1-oxo-1H-inden-5-yl)oxy]butanoic acid], the signs of toxicity result is “no overt signs of toxicity”.
